Earlier results in US7022337B2 (Shire Laboratories, Inc., priority 2002, dated 2006).

Conditions: prolonged treatment, 300 to 400 mg per day

CC(C)OC(=O)C(C)(C)Oc1ccc(C(=O)c2ccc(Cl)cc2)cc1 [Fenofibrate, 2-[4-(4-Chlorobenzoyl)phenoxy]-2-methylpropanoic acid 1-methylethyl ester]
Reduction in the levels of triglycerides: 40 to 50% | Reduction in total cholesterol: 20 to 25%
